Counter-ions that a name gives are not always drawn.
Tests used:
[1] = tested on: right ventricle gene expression; test: Right ventricle gene expression, Affymetrix Mouse Gene 2.0 arrays (Example IV); format: in vivo, mice; conditions: sham surgery mice, 25 mg/kg/day, 2 weeks
Method: FVB/N mice or mice with a GFP macrophage-specific lineage tracing marker (LysM-Cre) underwent pulmonary banding to directly increase load stress (or sham surgery for controls), and starting the following day received either vehicle or the thromboxane receptor antagonist Ifetroban sodium in their drinking water (25 mg/kg/day). After 2 weeks, noninvasive hemodynamics were obtained by transthoracic echocardiography and invasive hemodynamics were obtained by pressure-volume catheterization of the right heart prior to sacrifice. Hearts were assessed for fibrosis and macrophage infiltration. RNA from right ventricles were isolated and used for unbiased discovery of altered gene expression using Affymetrix Mouse Gene 2.0 arrays performed on four groups (banded or sham). LysM-Cre mouse hearts were flash-frozen whole, cross-sectioned, and assessed by microscopy for fibrosis and macrophage infiltration. Differences between groups were assessed by ANOVA and t-tests. Correlations were assessed by Spearman correlation.

[2] = tested on: RV monocytes / macrophages; test: Cardiac monocytes: LysM-Cre lineage tracing and flow cytometry of RV (Example VII); format: in vivo, mice; conditions: LysM-Cre reporter mice, aspirin
Method: Both male and female age-matched C57Bl/6 or FVB/NJ mice, obtained by in-house breeding, were used for pulmonary artery banding. LysM-GFP mice were obtained by cross-breeding LysM-Cre×mTomato/GFP reporter mice B6.129P2-Lyz2tm1(cre)Ifo/J (a gift from Tim Blackwell)×Gt(ROSA)26Sortm4(ACTB-tdTomato, -EGFP)Luo (JAX stock #007676). The day following surgery, mice were given either 25 mg/kg/day IFETROBAN (Cumberland Pharmaceuticals Inc., Nashville, TN) in drinking water or normal drinking water (vehicle) for 2 weeks or 6 weeks prior to hemodynamic evaluation. Mice were weighed and water was changed once a week.
TP receptors are also expressed on monocytes, and blockade of these receptors may have immune-specific effects. To determine whether the decrease in fibrosis seen with TP receptor inhibition was due to decreased macrophage infiltration or proliferation in the RV, PAB on LysM-Cre mice expressing eGFP under the LysozymeM promoter was performed, where all cells that have ever had monocyte lineage are labeled with GFP, even if they have later differentiated. […] Transgenic LysM-Cre×flox-mTomato-flox eGFP mice were used to label cells of monocyte derivation in the RV. These mice express a fluorescent red, except in cells derived from monocyte lineage (even if they have later differentiated), which express a fluorescent green. […] Flow sorting of whole RV for circulating markers found a non-significant trend towards an increase in PA-banded mice that was blocked by ifetroban.

[3] = tested on: pulmonary artery banding (PAB) model of right ventricular pressure overload; test: PAB model of right ventricular pressure overload: hemodynamics, echocardiography, histology (Example VII); format: in vivo; conditions: PAB mice

SMILES: CCCCCNC(=O)c1coc([C@H]2[C@@H](Cc3ccccc3CCC(=O)O)[C@@H]3CC[C@H]2O3)n1 [Ifetroban sodium, [1S-(1α,2α,3α,4α)]-2-[[3-[4-[(Pentylamino)carbonyl]-2-oxazolyl]-7-oxabicyclo[2.2.1]hept-2-yl]methyl]-benzenepropanoic acid, monosodium salt]
- the same expression changes in the sham surgery group [1]: not found in the sham surgery group

SMILES: CC(=O)Oc1ccccc1C(=O)O [aspirin]
- number of RV monocytes / green (monocyte lineage) cells after PAB [2]: appeared to increase the number of RV monocytes
- number of RV monocytes / green (monocyte lineage) cells after PAB ([2]; listed as ASA): significantly increases numbers of green cells
- replication of the ifetroban results (fibrosis, hypertrophy, TSP-4, TGF-beta) ([3]; low-dose aspirin): failed to replicate these results
- RV fibrosis (Masson's trichrome) ([3]; oral aspirin 10 mg/kg/day, 2 weeks): failed to prevent fibrosis
